Measured values taken from patent US7709259B2, “Enhancement of mammalian embryo development” (Board of Regents of the University of Texas System, priority 2003, dated 2010).
Entries after “also recorded” stand apart in the source; their conditions may differ.

What was measured:
[1] = system: mouse embryos; assay: Complete hatching of cultured two-cell mouse embryos; format: cell-based; conditions: for effect on complete hatching: 0.1 μM
Protocol: Mice were kept under controlled temperature, humidity, and light cycle (12 hour light/dark cycle) conditions with free access to water and food. Three-week old C57B1/6 female mice were purchased from Harlan (Indianapolis, Ind., USA). Eight-week old C3H male mice were purchased initially from Harlan and later from The Jackson Laboratory (Bar Harbor, Me., USA). Superovulation in the female mice was achieved by intraperitoneal injection of pregnant mare serum gonadotropin (5 IU), followed by human chorionic gonadotropin (hCG, 5 IU) 46 hours later. After receiving hCG, each female mouse was paired with one fertile male mouse. Forty-eight hours later, two-cell embryos were harvested from the oviduct into α-MEM media supplemented with 25 mM HEPES and 1% BSA (Irvine Scientific).
Embryos (17-20 per group) were cultured at 37° C. under 5% CO2 in a four-well dish (Nalge Nunc International, Naperville, Ill., USA) containing 600 μl of medium in each well. The HTF and the α-MEM media were used sequentially during the 96-hour period to meet the changing nutritional requirements of the cleaving embryos [Gardner, 1998]. The HTF medium (SAGE Biopharma) was used during the first 48 hours, and the α-MEM medium (Irvine Scientific), with Earle's Salts and 2 mM glutamine, was used during the second 48 hours. The experimental embryos received Iloprost in water and the control embryos received an equal amount of water. […] After 96-hour culture, each embryo was examined for the presence of the zona pellucida. Embryos completely free of the zona pellucida were counted as having completely hatched. The rate of complete hatching was determined by dividing the number of completely hatched embryos by the total number of embryos. Complete hatching of embryos was chosen as an endpoint instead of blastocyst formation or embryo hatching because the latter two markers are not correlated with establishment of a viable pregnancy [Lane, 1997].
Student's t-test or one-way analysis of variance followed by Dunnett test were used where appropriate. A p<0.05 was considered statistically significant. Construction of dose response curves and calculation of ED50 values (with the Hill slope set at 1.0) were completed with the GraphPad Prism® software (GraphPad Prism Software Inc., San Diego, Calif., USA).

[2] = system: intact mouse embryos (blastocysts); assay: Whole embryo radioligand binding assay (3H-Iloprost); conditions: 0.1 μM 3H-Iloprost, with or without 5 μM unlabeled Iloprost, 116 blastocysts
Protocol: Analysis of the binding of ^3H-Iloprost to blastocysts was performed as previously described [Arbab, 2002] with slight modification. Two hundred thirty-two hatched and hatching blastocysts were washed three times in binding buffer (10 mM MnCl2 in 10 mM HEPES, pH 7.4) and then transferred to 100 μl of binding buffer with or without unlabeled Iloprost (5 μM). The reaction was started by adding an equal amount of binding buffer containing ^3H-Iloprost (200 nM, specific activity 11.0 Ci/mmol, Amersham Biosciences) and incubating for 60 min at room temperature. The reaction was terminated by transferring the blastocysts to 2 ml of ice-cold wash buffer (0.01% BSA in 10 mM HEPES, pH 7.4). The buffer and the blastocysts were filtered through glass fiber filters (Whatman GF/C 2.4 cm) and the filters were washed three times with 2 ml of wash buffer. The filters were dried in an oven before the radioactivity was determined by scintillation counting with 5 ml of scintillation fluid.

[3] = system: mouse embryos; assay: Developmental stage of cultured embryos at the time of transfer; format: cell-based
Protocol: (§1) Mouse embryos were harvested and cultured as described above, and subsequently published by the present inventor (Huang et al., 2003). Briefly, two-cell embryos ([…]) were harvested from super-ovulated, three-week old C57B1/6 female mice 42 hours after hCG injection. The embryos (14 per group) were cultured at 37° C. under 5% CO2 in four-well dish (Nalge Nunc International, Naperville, Ill., USA) each containing 600 μl HTF media (SAGE Biopharma, Bedminster, N.J., USA). The experimental embryos received Iloprost (1 μM, Caymen Chemical, Ann Arbor, Mich., USA) in water and the control embryos, an equal amount of water. In either case, the volume of water was less than 0.1% of the culture media.
(§2) Embryo transfer was performed on 2.5 day of pseudopregnancy under a dissecting microscope (Olympus SZ-PT). Surgical anesthesia was obtained through intraperitoneal injection of ketamine (200 mg/Kg) and xylazine (10 mg/Kg) (both from Burns Vet Supply Inc. TX, USA). Each uterine horn was accessed via a 2-cm flank incision. With the proximal oviduct held by a pair of forceps, an opening was created at the distal end of the uterine horn on the anti-mesenteric side with a 30 gauge needle. The opening permits the entry of transfer pipette which has an inner diameter of 135 μm (MidAtlantic Diagnostics, Inc. NJ, USA). Up to seven embryos in 0.8 μl of transfer media (α MEM with 25 mM HEPES and 1% BSA) were transferred to each horn. After each transfer, contents of the pipette were examined under a stereo microscope to identify retained embryos. The flank incision was closed with 9 mm metallic clips (Clay Adams, Parsippany, N.J., USA). To avoid mixing of control and experimental embryos due to embryo migration from one horn to the other (personal communication with Dr. Andreas Zimmer, University of Bonn, Germany), each gestational carrier received either control or experimental embryos. To maintain consistent transfer techniques, the embryo transfer was performed according to the same protocol and by one individual, who was blinded to the treatment the embryos being placed received. To ensure that both groups benefited equally from the experience gained over the course of the study (˜6 months), the embryos were assigned treatments (control or Iloprost) in blocks of four.

[4] = system: mouse embryos; assay: Implantation rate 72 hours after transfer of cultured embryos to gestational carriers; format: in vivo
Protocol: as §1
The day after the embryo donors received hCG, vaginal smears were obtained from potential gestational carriers (eight week old C3B6F1 female mice) to determine the stage of estrus cycle. […]
Seventy-two hours after embryo transfer, implantation was determined based on a previously described method with some modifications (Paria et al., 1993). […] Discrete blue bands (indicated by *) encircling the uterine horns were counted (FIG. 6A). […] The uterine horns were then opened and the gestation sacs counted (FIG. 6B). The implantation rate was expressed as the number of gestation sacs per embryo transferred. […]

[5] = system: mouse embryos; assay: Live birth rate, implantation rate and weights of pups and placentae 14 days after embryo transfer; format: in vivo
Protocol: as §1
The day after the embryo donors received hCG, vaginal smears were obtained from potential gestational carriers (eight week old C3B6F1 female mice) to determine the stage of estrus cycle. Those in estrus were paired with vasectomized ICR males (Harlan) and checked for vaginal plugs on the following morning. Those with plugs were designated to be 0.5 day pseudopregnant.
as §2
In order to count and weigh the pups accurately, we sacrificed gestational carriers 14 days after embryo transfer (16.5 days of pregnancy or two days before natural birth). After euthanasia, the number of live pups was counted and the weight of individual pup and placenta was determined. All pups were examined for gross anomalies. The number of empty gestation sacs was also counted in order to determine the implantation rate. The live birth rate was expressed as the number of live pups per embryo transferred; the implantation rate was expressed as the number of sacs, with or without live pups, per embryo transferred.
The Fisher's exact test was used to compare the rates; the Student's t-test was used to compare the weights. A p<0.05 was considered as statistically significant. The GraphPad Instat® software (GraphPad Software Inc., San Diego, Calif., USA) was used for statistical analysis.

[6] = system: human embryos (frozen zygotes); assay: Blastocyst formation study with frozen human zygotes; format: cell-based; conditions: Frozen Zygote, 0.1 μM
Protocol: (§3) With the patients' written instructions, 101 frozen zygotes from 14 couples were used for the blastocyst formation study. The zygotes had been frozen during the period of January, 1993 to November, 2003. After overnight culture, only those embryos that had developed to 2-cell stage were used for further study. For each patient, those 2-cell stage embryos were split into a control pool or an experimental pool. All embryos were cultured in Gobal medium (a modified KSOM medium from IVF online) for 5 days with change medium at 2.5 day. The experimental group was supplemented with 0.1 μM of Iloprost (Cayman Chemical, Ann Arbor, Mich.). The control group was supplemented with vehicle (0.000001% DMSO). Chi-Square test were used to compare the number of blastocyst formed. The quality (size, inner cell mass, trophectoderm) of blastocysts was analyzed by non-parametric Wilcoxon Rank Sum Test. The statistical significance was defined at P<0.05. Another 52 donated frozen blastocysts, from 9 couples, were used for short term study. Forty-five thawed blastocysts were recovered. Those blastocysts were immediately cultured with or without Iloprost. The re-expansion of blastocoel was checked 18 hours later. The analysis of outcome was the same as the analysis for the frozen zygotes study.

[7] = system: human frozen blastocysts; assay: Short term study with thawed frozen human blastocysts; format: cell-based
Protocol: as §3

[8] = system: rabbits; conditions: Iloprost given throughout the gestation period; cited from earlier work
[9] = system: monkeys; conditions: Iloprost given throughout the gestation period; cited from earlier work
[10] = system: rats; conditions: Iloprost given throughout the gestation period; cited from earlier work
[11] = 1 μM in HTF media, 81 embryos transferred

## CCCCC[C@H](O)/C=C/[C@H]1[C@H](O)CC(=O)[C@@H]1C/C=C\CCCC(=O)O [PGE2, prostaglandin E2]
[1]; preliminary data
  effect on complete hatching of cultured mouse embryos: enhanced the complete hatching

## CC#CCC(C)[C@H](O)/C=C/[C@@H]1[C@H]2C/C(=C/CCCC(=O)O)C[C@H]2C[C@H]1O (stereo partly shown) [Iloprost]
[1]; exposure 0-72 hours after harvest
  effect on complete hatching: same rates of complete hatching as did 0-96 hours exposure
[1]; exposure 24-42 hours (eight-cell embryos to morulae)
  effect on complete hatching: ensured enhanced hatching
[1]; exposure 24-72 hours after harvest
  effect on complete hatching: same rates of complete hatching as did 0-96 hours exposure
[1]; exposure 42-72 hours (morulae to early blastocysts)
  effect on complete hatching: ensured enhanced hatching
[1]; exposure during the first 24 hours of culture (two-cell to eight-cell)
  effect on complete hatching: did not enhance hatching
[1]; 1 μM, maximum augmentation, 96 hours, n=3, control 49±14%
  rate of complete hatching (mean±S.D.): 81±7%
[1]; 96 hour culture
  concentration at which effects on complete hatching were statistically significant: ≥ 0.1 µM
[1]; Mus musculus, 96 h, two-cell mouse embryos cultured 96 hours with 1 nM to 10 μM, Hill slope set at 1.0, read-out: ED50 for enhancement of complete hatching
  EC50: 6.7 nM
[2]
  3H-Iloprost specifically bound: approximately 3.04 fmol
[3]; [11]
  Degenerated (number of embryos at transfer): 0
  Hatching Blastocyst (number of embryos at transfer): 2
  Morula (number of embryos at transfer): 49
[3]; 1 μM, 81 embryos transferred, blastocoele cavity <49% of the embryo
  Early Blastocyst (number of embryos at transfer): 8
[3]; 1 μM, 81 embryos transferred, blastocoele cavity ≧50% of the embryo
  Late Blastocyst (number of embryos at transfer): 22
[3]; experimental and control embryos
  embryos at the morula stage at the time of transfer: approximately 70%
[4]; 72 hours after transfer of 81 embryos cultured with 1 μM, control 35
  Number of gestation sacs: 62
[4]; 72 hours after transfer, control 42%
  implantation rate (gestation sacs per embryo transferred): 76%
[5]; 14 days after transfer (16.5 days of pregnancy), control 0.788 ± 0.151
  Pup weight (mean ± S.D.): 0.772 ± 0.124 gm
[5]; 14 days after transfer of 415 embryos to 31 carriers, control 115
  Total number of live pups: 149
[5]; 14 days after transfer, control 0.166 ± 0.037
  Placental weight (mean ± S.D.): 0.166 ± 0.003 gm
[5]; 14 days after transfer, control 28%
  live birth rate (live pups per embryo transferred): 36%
[5]; 14 days after transfer, control 46%
  implantation rate (sacs with or without live pups per embryo transferred): 59%
[5]; embryos exposed during the pre-implantation period, live pups examined
  gross anomalies of pups: no gross anomalies; also recorded: no digit reduction or other anomalies
[6]; 5 days culture, control 11/26
  blastocysts formed / embryos: (18/26)
[6]; 5 days culture, control 42%
  Blastocyst formation rate: 69%
[6]; inner cell mass, control 0.50
  ICM (coding A = 3, B = 2, C = 1): 1.42
[6]; morula or degenerated = 0, control 1.42
  Size (score 1-6): 3.04
[6]; trophectoderm, control 0.46
  TRO (coding A = 3, B = 2, C = 1): 1.31
[7]; Frozen blastocyst, 18 hours, control 0.68
  TRO (coding A = 3, B = 2, C = 1): 0.78
[7]; Frozen blastocyst, 18 hours, control 0.72
  ICM (coding A = 3, B = 2, C = 1): 0.86
[7]; Frozen blastocyst, 18 hours, control 1.45
  Size (score 1-6): 1.47
[7]; Frozen blastocyst, 18 hours, control 11/22
  blastocysts / thawed blastocysts: (11/23)
[7]; re-expansion of blastocoel checked 18 hours after thaw, control 50%
  Blastocyst formate rate: 48%
[8]
  embryonic and fetal development: not affected
[9]
  embryonic and fetal development: not affected
[10]
  embryonic and fetal development: digit reduction
